Assay results as given in patent US11014920B2, “Factor XIIa inhibitors” (Merck Sharp & Dohme Corp., priority 2016, dated 2021).

biological target: purified human Factor XIIa (Homo sapiens (Human), UniProt P00748); assay: Factor XIIa assay; assay type: biochemical; details: substrate n-Acetyl-Lys-Pro-Arg-AFC 100 μM, pH 7.4, read-out: FXIIa IC50
Method: “FXIIa IC50(nm)” is Human Factor XIIa IC50 (nm).
The effectiveness of a compound of the present invention as an inhibitor of Coagulation Factor XIIa can be determined using a relevant purified serine protease, and an appropriate synthetic substrate. The rate of hydrolysis of the chromogenic or fluorogenic substrate by the relevant serine protease was measured both in the absence and presence of compounds of the present invention. Assays were conducted at room temperature or at 37° C. […] A decrease in the rate of fluorescence change in the presence of inhibitor is indicative of enzyme inhibition. Such methods are known to one skilled in the art. The results of this assay are expressed as the IC50, the inhibitor concentration causing a 50% decrease in Factor XIIa protease activity.
Factor XIIa activity determinations were made in 50 mM HEPES buffer containing 150 mM NaCl, 5 mM CaCl2, and 0.1% PEG 8000 (polyethylene glycol; JT Baker or Fisher Scientific) at pH 7.4. Determinations were made using purified human Factor XIIa at a final concentration of […] (Sekisui Diagnostics) and the synthetic substrate, n-Acetyl-Lys-Pro-Arg-AFC, TFA salt (Sigma # C6608) at a concentration of 100 μM.
Times required to achieve equilibration between enzyme and inhibitor were determined in control experiments. Initial velocities of product formation in the absence (Vo) or presence of inhibitor (Vi) were measured.

Sequence of purified human Factor XIIa (P00748 373-615): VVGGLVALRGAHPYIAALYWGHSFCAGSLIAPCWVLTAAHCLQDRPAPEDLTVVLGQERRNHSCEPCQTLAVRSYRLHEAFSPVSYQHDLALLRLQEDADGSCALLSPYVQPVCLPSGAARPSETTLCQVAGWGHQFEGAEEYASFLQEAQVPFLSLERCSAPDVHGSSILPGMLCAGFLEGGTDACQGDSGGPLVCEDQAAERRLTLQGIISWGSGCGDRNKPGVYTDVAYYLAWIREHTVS
Sequence of purified human Factor XIIa (P00748 20-372 partner): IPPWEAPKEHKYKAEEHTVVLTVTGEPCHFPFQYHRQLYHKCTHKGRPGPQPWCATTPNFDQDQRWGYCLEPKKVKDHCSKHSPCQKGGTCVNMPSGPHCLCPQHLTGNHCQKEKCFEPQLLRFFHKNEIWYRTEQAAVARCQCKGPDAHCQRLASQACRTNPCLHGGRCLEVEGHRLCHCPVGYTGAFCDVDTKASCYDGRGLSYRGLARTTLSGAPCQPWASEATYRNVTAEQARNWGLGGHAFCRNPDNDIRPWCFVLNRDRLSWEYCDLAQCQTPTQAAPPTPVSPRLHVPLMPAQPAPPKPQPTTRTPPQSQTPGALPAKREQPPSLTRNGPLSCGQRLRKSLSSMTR

| IC50 [nM] | SMILES |
| --- | --- |
| 49.2 | Cc1cnc(C(=O)N[C@@H]2CCN(C(=O)[C@@H](CC3CCCCC3)NC3CCCCC3)C[C@@H]2C(=O)NCc2ccc3[nH]cc(Cl)c3c2)s1 [Compound 1, (3S,4R)-N-[(3-chloro-1H-indol-5-yl)methyl]-1-(N,3-dicyclohexyl-D-alanyl)-4-{[(5-methyl-1,3-thiazol-2-yl)carbonyl]amino}pi-peridine-3-carboxamide] |
| 73.3 | Cc1cnc(C(=O)NC2CCN(C(=O)[C@@H](CC3CCCCC3)NC3CCCCC3)CC2C(=O)NCc2ccc(CN)cc2)s1 (stereo partly drawn) [Compound 2, N-[4-(aminomethyl)benzyl]-1-(N,3-dicyclohexyl-D-alanyl)-4-{[(5-methyl-1,3-thiazol-2-yl)carbonyl]amino}pi-peridine-3-carboxamide] |
| 109 | Cc1cnc(C(=O)N[C@@H]2CCN(C(=O)[C@@H](CCCCN)NC3CCCCC3)C[C@@H]2C(=O)NCc2cccs2)s1 [Compound 3, (3S,4R)-1-(N~2~- cyclohexyl-D-lysyl)-4-{[(5-methyl-1,3-thiazol-2-yl)carbonyl]amino}-N-(thiophen-2-ylmethyl)piperidine-3-carboxamide] |
| 65.1 | Cc1cnc(C(=O)N[C@@H]2CCN(C(=O)[C@@H](CC3CCCCC3)NC3CCCCC3)C[C@@H]2C(=O)NCc2ccnc(N)c2)s1 [Compound 4, (3S,4R)-N-[(2-aminopyridin-4-yl)methyl]-1-(N,3-dicyclohexyl-D-alanyl)-4-{[(5-methyl-1,3-thiazol-2-yl)carbonyl]amino}pi-peridine-3-carboxamide] |
| 71.6 | CN(C)CCCC[C@H](C(=O)N1CC[C@@H](NC(=O)c2ccc(F)c(F)c2)[C@@H](C(=O)NCc2cccs2)C1)N(C)C1CCCCC1 [Compound 5, (3S,4R)-1-(N~2~- cyclohexyl-N~2~,N~6~,N~6~- trimethyl-D-lysyl)-4-{[(3,4-difluoro-phenyl)carbonyl]amino}-N-(thiophen-2-ylmethyl)piperidine-3-carboxamide] |
| 98.3 | CN(C)CCCC[C@H](C(=O)N1CC[C@@H](NC(=O)c2ccc(F)cc2)[C@@H](C(=O)NCc2cccs2)C1)N(C)C1CCCCC1 [Compound 6, (3S,4R)-1-(N~2~- cyclohexyl-N~2~,N~6~,N~6~- trimethyl-D-lysyl)-4-{[(4-fluoro-phenyl)carbonyl]amino}-N-(thiophen-2-ylmethyl)piperidine-3-carboxamide] |
| 18.7 | CN(C)CCCC[C@H](C(=O)N1CC[C@@H](NC(=O)c2ccc(F)cc2F)[C@@H](C(=O)NCc2cccs2)C1)N(C)C1CCCCC1 [Compound 7, (3S,4R)-1-(N~2~- cyclohexyl-N~2~,N~6~,N~6~- trimethyl-D-lysyl)-4-{[(2,4-difluoro-phenyl)carbonyl]amino}-N-(thiophen-2-ylmethyl)piperidine-3-carboxamide] |
| 60.2 | CN(C)CCCC[C@H](C(=O)N1CC[C@@H](NC(=O)c2ccccc2)[C@@H](C(=O)NCc2cccs2)C1)N(C)C1CCCCC1 [Compound 8, (3S,4R)-1-(N~2~- cyclohexyl-N~2~,N~6~,N~6~- trimethyl-D-lysyl)-4-[(phenylcarbonyl)amino]-N-(thiophen-2-ylmethyl)piperidine-3-carboxamide] |
| 11.5 | CN(C)CCCC[C@H](C(=O)N1CC[C@@H](NC(=O)c2ccc(Cl)cc2)[C@@H](C(=O)NCc2cccs2)C1)N(C)C1CCCCC1 [Compound 9, (3S,4R)-4-{[(4-chloro-phenyl)carbonyl]amino}-1-(N~2~- cyclohexyl-N~2~,N~6~,N~6~- trimethyl-D-lysyl)-N-(thiophen-2-ylmethyl)piperidine-3-carboxamide] |
| 29.2 | CN(C)CCCC[C@H](C(=O)N1CC[C@@H](NC(=O)c2cc(F)c(F)cc2F)[C@@H](C(=O)NCc2cccs2)C1)N(C)C1CCCCC1 [Compound 10, (3S,4R)-1-(N~2~- cyclohexyl-N~2~,N~6~,N~6~- trimethyl-D-lysyl)-N-(thiophen-2-ylmethyl)-4-{[(2,4,5-trifluoro-phenyl)carbonyl]amino}pi-peridine-3-carboxamide] |
| 71.6 | NCCCC[C@@H](NC1CCCCC1)C(=O)N1CC[C@@H](NC(=O)N2CCC3(CC2)CC3)[C@@H](C(=O)NCc2cccs2)C1 [Compound 11, N-{(3S,4R)-1-(N~2~- cyclohexyl-D-lysyl)-3-[(thiophen-2-ylmethyl)carbamoyl]pi-peridin-4-yl}-6-azaspiro[2.5]octane-6-carboxamide] |
| 41.7 | NCc1ccc(CNC(=O)[C@H]2CN(C(=O)[C@@H](CC3CC3)NC3CCCCC3)CC[C@H]2NC(=O)N2CCC3(CC2)CC3)cc1 [Compound 12, N-[(3S,4R)-3-{[4-(amino-methyl)benzyl]carbamoyl}-1-(N-cyclohexyl-3-cyclopropyl-D-alanyl)piperidin-4-yl]-6-azaspiro[2.5]octane-6-carboxamide] |
| 98.3 | NCCCC[C@@H](NC1CCCCC1)C(=O)N1CC[C@@H](NC(=O)N2CCC3(CC2)CC3)[C@@H](C(=O)NCc2ccccc2)C1 [Compound 13, N-[(3S,4R)-3-(benzylcarbamoyl)-1-(N~2~-cyclohexyl-D-lysyl)piperidin-4-yl]-6-azaspiro[2.5]octane-6-carboxamide] |
| 18.7 | NCCCC[C@@H](NC1CCCCC1)C(=O)N1CC[C@@H](NC(=O)N2CCC3(CC2)CC3)[C@@H](C(=O)NCc2ccc(CN)cc2)C1 [Compound 14, N-[(3S,4R)-3-{[4-(amino-methyl)benzyl]carbamoyl}-1-(N~2~-cyclohexyl-D-lysyl)piperidin-4-yl]-6-azaspiro[2.5]octane-6-carboxamide] |
| 60.2 | Cc1csc(CNC(=O)[C@H]2CN(C(=O)[C@@H](CCCCN)NC3CCCCC3)CC[C@H]2NC(=O)N2CCC3(CC2)CC3)c1 [Compound 15, N-[(3S,4R)-1-(N~2~- cyclohexyl-D-lysyl)-3-{[(4-methylthiophen-2-yl)methyl]carbamoyl}pi-peridin-4-yl]-6-azaspiro[2.5]octane-6-carboxamide] |
| 11.5 | O=C(NCc1cccs1)[C@H]1CN(C(=O)[C@@H](CCCCN2CCCS2(=O)=O)NC2CCCCC2)CC[C@H]1NC(=O)N1CCC2(CC1)CC2 [Compound 17, N-{(3S,4R)-1-[N-cyclohexyl-6-(1,1-dioxidoisothiazolidin-2-yl)-D-norleucyl]-3-[(thiophen-2-ylmethyl)carbamoyl]pi-peridin-4-yl}-6-azaspiro[2.5]octane-6-carboxamide] |
| 29.2 | CS(=O)(=O)NCCCC[C@@H](NC1CCC2(CC1)CCN(Cc1ccccc1)C2)C(=O)N1CC[C@@H](NC(=O)N2CCC3(CC2)CC3)[C@@H](C(=O)NCc2cccs2)C1 (stereo partly drawn) [Compound 18, N-{(3S,4R)-1-[N~2~- (2-benzyl-2-azaspiro[4.5]dec-8-yl)-N~6~-(methylsulfonyl)-D-lysyl]-3-[(thiophen-2-ylmethyl)carbamoyl]pi-peridin-4-yl}-6-azaspiro[2.5]octane-6-carboxamide] |
| 43.1 | O=C(NCc1cccs1)[C@H]1CN(C(=O)[C@@H](CCCCNS(=O)(=O)C2CC2)NC2CCCCC2)CC[C@H]1NC(=O)N1CCC2(CC1)CC2 [Compound 19, N-{(3S,4R)-1-[N~2~- cyclohexyl-N~6~- (cyclopropylsulfonyl)-D-lysyl]-3-[(thiophen-2-ylmethyl)carbamoyl]pi-peridin-4-yl}-6-azaspiro[2.5]octane-6-carboxamide] |
| 47.2 | O=C(NCc1cccs1)[C@H]1CN(C(=O)[C@@H](CC2CCNCC2)NC2CCCCC2)CC[C@H]1NC(=O)N1CCC2(CC1)CC2 [Compound 20, N-{(3S,4R)-1-(N-cyclohexyl-3-piperidin-4-yl-D-alanyl)-3-[(thiophen-2-ylmethyl)carbamoyl]pi-peridin-4-yl}-6-azaspiro[2.5]octane-6-carboxamide] |
| 51.2 | CCS(=O)(=O)NCCCC[C@@H](NC1CCCCC1)C(=O)N1CC[C@@H](NC(=O)N2CCC3(CC2)CC3)[C@@H](C(=O)NCc2cccs2)C1 [Compound 21, N-{(3S,4R)-1-[N~2~- cyclohexyl-N~6~- (ethylsulfonyl)-D-lysyl]-3-[(thiophen-2-ylmethyl)carbamoyl]pi-peridin-4-yl}-6-azaspiro[2.5]octane-6-carboxamide] |
| 46.5 | O=C(NCc1cccs1)[C@H]1CN(C(=O)[C@@H](CCCCNCC(F)(F)F)NC2CCCCC2)CC[C@H]1NC(=O)N1CCC2(CC1)CC2 [Compound 22, N-{(3S,4R)-1-[N~2~- cyclohexyl-N~6~- (2,2,2-trifluoroethyl)-D-lysyl]-3-[(thiophen-2-ylmethyl)carbamoyl]pi-peridin-4-yl}-6-azaspiro[2.5]octane-6-carboxamide] |
| 52.4 | CS(=O)(=O)NCCCC[C@@H](NC1CCCCC1)C(=O)N1CC[C@@H](NC(=O)N2CCC3(CC2)CC3)[C@@H](C(=O)NCc2cccs2)C1 [Compound 23, N-{(3S,4R)-1-[N~2~- cyclohexyl-N~6~- (methylsulfonyl)-D-lysyl]-3-[(thiophen-2-ylmethyl)carbamoyl]pi-peridin-4-yl}-6-azaspiro[2.5]octane-6-carboxamide] |
| 108 | CC(=O)NCCCC[C@@H](NC1CCCCC1)C(=O)N1CC[C@@H](NC(=O)N2CCC3(CC2)CC3)[C@@H](C(=O)NCc2cccs2)C1 [Compound 24, N-{(3S,4R)-1-(N~6~- acetyl-N~2~- cyclohexyl-D-lysyl)-3-[(thiophen-2-ylmethyl)carbamoyl]pi-peridin-4-yl}-6-azaspiro[2.5]octane-6-carboxamide] |
